{
  "source": "patent US20060159628A1",
  "about": "“Nanoparticulate benzothiophene formulations” (Elan Pharma International Limited, priority 2004, published 2006)",
  "origin": "cited, not measured here",
  "key": {"MCF-7 cells": {"tested_on": "MCF-7 cells", "conditions": "cell culture"}, "uterine tissue": {"tested_on": "uterine tissue", "conditions": "ovariectomized (OVX) rats"}},
  "data": [
    {"smiles": "Cl.O=C(c1ccc(OCCN2CCCCC2)cc1)c1c(-c2ccc(O)cc2)sc2cc(O)ccc12", "note": "[Raloxifene hydrochloride, methanone, [6-hydroxy-2-(4-hydroxyphenyl)benzo[b]thien-3-yl]-[4-[2-(1-piperidinyl)ethoxy]phenyl]-, hydrochloride]", "values": [
      {"measurement": "solubility in water", "value": "very slightly soluble"},
      {"measurement": "estrogen-dependent proliferation in MCF-7 cells", "setting": "MCF-7 cells", "value": "inhibits estrogen-dependent proliferation"},
      {"measurement": "uterotrophic response", "setting": "uterine tissue", "value": "only minimal uterotrophic response"}
    ]}
  ]
}
